For assay [1], the system named is HSRE resistant strain (multiresistant clinical isolate). The assay can be described thus: MIC and MBC, classical method (liquid Shkolnikova medium, Lowenstein-Jensen medium). The assay is classed as cell-based, Mycobacterium tuberculosis.
Assay [2] has as its system XTB strain (extremly resistant clinical isolate). The assay is described as above. The assay is classed as cell-based, Mycobacterium tuberculosis.

Structures are written as SMILES. Values after ≈ are worked out from the molar mass of the structure shown.

As a reminder, the MBC is the smallest concentration meeting the test's criterion for killing. In general, MIC refers to the least concentration at which growth counts as inhibited. A low value points to a more susceptible organism. In assay [1] (Mycobacterium tuberculosis), `CN(Cc1ccccc1)c1nc(=O)c2cc(C(F)(F)F)cc([N+](=O)[O-])c2s1` [Compound 5, 2-[Benzyl(methyl)amino]-8-nitro-6-(trifluoromethyl)-4H-1,3-benzothiazin-4-one] displayed a minimum bactericidal concentration (MBC) of 3.12 µg/mL (≈ 7.89 µM) and a minimum inhibitory concentration (MIC) of 1.56 µg/mL (≈ 3.95 µM). In assay [2] (Mycobacterium tuberculosis), this molecule gave a minimal bactericidal concentration (MBC) of 3.12 µg/mL (≈ 7.89 µM) and a minimal inhibitory concentration (MIC) of 1.56 µg/mL (≈ 3.95 µM).
As to `NNC(=O)c1ccncc1` [Isoniazid (INH), Isoniazid, reference compound], the MIC entry in assay [1] (HSRE resistant strain (multiresistant)) and in assay [2] (X TB strain (extremly resistant)) was “Not active” in each case.
On to `O=c1nc(NCc2ccccc2)sc2c([N+](=O)[O-])cc(C(F)(F)F)cc12` [Compound 8, 2-(Benzylamino)-8-nitro-6-(trifluoromethyl)-4H-1,3-benzothiazin-4-one], for which, in assay [1] (Mycobacterium tuberculosis), the minimal bactericidal concentration (MBC) came to 1.56 µg/mL (≈ 4.09 µM) and the minimal inhibitory concentration (MIC) came out at 0.78 µg/mL (≈ 2.05 µM). Also, in assay [2] (Mycobacterium tuberculosis), the MBC turned out to be 1.56 µg/mL (≈ 4.09 µM) and the MIC turned out to be 0.78 µg/mL (≈ 2.05 µM).
On to `CN(Cc1ccccc1)c1nc(=O)c2cc(Cl)cc([N+](=O)[O-])c2s1` [Compound 10, 2-[Benzyl(methyl)amino]-6-chloro-8-nitro-4H-1,3-benzothiazin-4-one], for which the results for the MBC in assay [1] (Mycobacterium tuberculosis) and in assay [2] (Mycobacterium tuberculosis) were 1.56 µg/mL (≈ 4.31 µM) and 0.39 µg/mL (≈ 1.08 µM), respectively. In addition, the MIC is 1.56 µg/mL (≈ 4.31 µM) in assay [1] (Mycobacterium tuberculosis) and under 0.39 µg/mL in assay [2] (Mycobacterium tuberculosis).

Source of the values: patent US8440842B2, “Antimicrobial compounds, their synthesis and their use for treatment of mammalian infections” (Leibniz-Institut fuer Naturstoff-Forschung und …, priority 2007, dated 2013).
